Source: ChEMBL document CHEMBL2086339 (J Med Chem, 2012)
Converted amounts (≈) assume the structure as drawn.

How the values were obtained:
[1] = Solubility of the compound at pseudo-thermodynamic equilibrium after 24 hrs by UPLC/UV/TOF-MS analysis at pH 7.4; type: physicochemical; details: buffer
[2] = Metabolic stability in rat plasma assessed as compound remaining at 250 uM after 3 hrs by LC-ESI-MS-MS analysis; type: ADME, cell-free; details: read-out: Stability
[3] = Cmax in Long Evans rat brain at 10 mg/kg, po; type: ADME, organism-based; set-up: dose 10 mg/kg, route oral
[4] = Cmax in Long Evans rat at 20 mg/kg, po; type: ADME, organism-based; set-up: dose 20 mg/kg, route oral; details: in vivo
[5] = Tmax in Long Evans rat at 20 mg/kg, po; type: ADME, organism-based; set-up: dose 20 mg/kg, route oral; details: in vivo
[6] = Ratio of drug level in brain to plasma in Long Evans rat at 10 mg/kg, po; type: ADME, organism-based; set-up: dose 10 mg/kg, route oral; details: read-out: BPR
[7] = Intrinsic clearance in rat liver microsomes assessed per mg of protein at 1 uM by UPLC/TOF-MS analysis; type: ADME, Microsome; details: read-out: CLH
[8] = AUC (0 to infinity) in Long Evans rat at 20 mg/kg, po; type: ADME, organism-based; set-up: time infinity, dose 20 mg/kg, route oral; details: plasma
[9] = Oral bioavailability in Long Evans rat at 20 mg/kg; type: ADME, organism-based; details: in vivo

COc1ccc(-c2cc(NC(=O)CCCCN3CCCOCC3)[nH]n2)cc1
solubility thermodynamic at 24 h [1]: 176 µM (≈ 65.6 µg/mL)

O=C(CCCCN1CCCCC1)Nc1cc(-c2ccco2)n[nH]1
solubility thermodynamic at 24 h [1]: 250 µM (≈ 79.1 µg/mL)

COc1ccc(-c2cc(NC(=O)CCCCN3CCOCC3)[nH]n2)cc1
solubility thermodynamic at 24 h [1]: 176 µM (≈ 63.1 µg/mL)

COc1ccc(-c2cc(NC(=O)CCCCN3CCC(C)CC3)n[nH]2)cc1
solubility thermodynamic at 24 h [1]: 198 µM (≈ 73.4 µg/mL)

COc1ccc(-c2cc(NC(=O)CCCCN3CCC(C(N)=O)CC3)[nH]n2)cc1
solubility thermodynamic at 24 h [1]: 184 µM (≈ 73.5 µg/mL)

COc1ccc(-c2cc(NC(=O)C(C)CCCN3CCCN(C(C)=O)CC3)[nH]n2)cc1 (stereo unspecified)
remaining at 3 h, 250 µM [2]: > 99%
solubility thermodynamic at 24 h [1]: 128 µM (≈ 54.7 µg/mL)

COc1ccccc1-c1cc(NC(=O)CCCCN2CCCCC2)[nH]n1
solubility thermodynamic at 24 h [1]: 178 µM (≈ 63.5 µg/mL)

O=C(CCCCN1CCCCC1)Nc1cc(-c2ccncc2)n[nH]1
solubility thermodynamic at 24 h [1]: 226 µM (≈ 74 µg/mL)

O=C(CCCCN1CCCCC1)Nc1cc(-c2ccc(F)cc2)n[nH]1
solubility thermodynamic at 24 h [1]: 237 µM (≈ 81.6 µg/mL)

O=C(CCCCN1CCCCC1)Nc1cc(-c2ccc(Br)cc2)n[nH]1
solubility thermodynamic at 24 h [1]: 144 µM (≈ 58.4 µg/mL)

COc1ccc(-c2cc(NC(=O)CCCCN3CCCCC3)[nH]n2)cc1
solubility thermodynamic at 24 h [1]: 219 µM (≈ 78.1 µg/mL)

COc1ccc(-c2c[nH]c(NC(=O)CCCCN3CCCN(C(C)=O)CC3)n2)cc1
solubility thermodynamic at 24 h [1]: 193 µM (≈ 79.8 µg/mL)

COc1ccc(-c2cc(NC(=O)CCCCN3CCNC(=O)CC3)[nH]n2)cc1
solubility thermodynamic at 24 h [1]: 117 µM (≈ 45.1 µg/mL)

COc1ccc(-c2cc(NC(=O)CCCCN3CCCN(C(C)=O)CC3)[nH]n2)cc1
remaining at 3 h, 250 µM [2]: 55%
Cmax [3]: 3.7 ng/g
solubility thermodynamic at 24 h [1]: 170 µM (≈ 70.3 µg/mL)
Cmax [4]: 180 nM
Tmax [5]: 49.8 min
Kp [6]: 0.38
microsomal CLint at 1 µM [7]: 13 µL/min/mg
AUC(0-inf) [8]: 1.37 µM·h
bioavailability [9]: 12%

COc1ccc(-c2cc(NC(=O)CCCCN3CCCNCC3)[nH]n2)cc1
solubility thermodynamic at 24 h [1]: 153 µM (≈ 56.8 µg/mL)

COc1ccc(-c2cc(NC(=O)CCCCN3CCCCCC3)n[nH]2)cc1
solubility thermodynamic at 24 h [1]: 133 µM (≈ 49.3 µg/mL)

COc1ccc(-c2cc(NC(=O)CCCCN3CCNC(=O)C3)[nH]n2)cc1
solubility thermodynamic at 24 h [1]: 92 µM (≈ 34.2 µg/mL)

COc1cccc(-c2cc(NC(=O)CCCCN3CCCCC3)[nH]n2)c1
solubility thermodynamic at 24 h [1]: 213 µM (≈ 75.9 µg/mL)

O=C(CCCCN1CCCCC1)Nc1cc(-c2ccc(Cl)cc2)n[nH]1
solubility thermodynamic at 24 h [1]: 182 µM (≈ 65.7 µg/mL)

COc1ccc(-c2n[nH]c(NC(=O)CCCCN3CCCN(C(C)=O)CC3)c2C)cc1
solubility thermodynamic at 24 h [1]: 151 µM (≈ 64.6 µg/mL)

O=C(CCCCN1CCCCC1)Nc1cc(-c2ccc(C(F)(F)F)cc2)n[nH]1
solubility thermodynamic at 24 h [1]: 157 µM (≈ 61.9 µg/mL)

COc1ccc(-c2n[nH]c(NC(=O)CCCCN3CCCCC3)c2C)cc1
solubility thermodynamic at 24 h [1]: 188 µM (≈ 69.7 µg/mL)
